Measurements published in patent US8828993B2, “Psychotropic agents having glutamate NMDA activity” (Ramot At Tel-Aviv University Ltd., priority 2006, dated 2014).
“Also recorded” adds a separate entry of the source. Where a name gives a salt, the structure may show the parent alone.

Tests used:
Format in all cases: in vivo
[1] = system: rats pretreated with MK-801; test: Morris Water Maze in rats pretreated with MK-801; conditions: rats pretreated with MK-801 0.15 mg/kg i.p.
Method: The Morris Water Maze is a well known test aimed to assess spatial cognitive tasks (Anger, et al., Animal test systems to study behavioral dysfunctions of neurodegenerative disorders, Neurotoxicology, 12, 403-13 (1991)). The maze consists of a circular pool measuring 1.80 m in diameter 60 cm in height. The pool was filled with water (21±1° C.) to a depth of 30 cm. A circular hidden escape platform (10 cm in diameter) was placed just below the water surface. The test room contained several permanent extra maze cues such as the rat housing rack, laboratory table, posters on the walls, etc.
The Morris Water Maze is a well known test aimed to assess spatial cognitive tasks. The maze consists of a circular pool measuring 1.80 m in diameter 60 cm in height. The pool was filled with water (21±1° C.) to a depth of 30 cm. A circular hidden escape platform (10 cm in diameter) was placed just below the water surface. The test room contained several permanent extra maze cues such as the rat housing rack, laboratory table, posters on the walls, etc.
In the experiment rats were given Compound 1 orally on day 1 and the first test begun 90 minute later, six trials per day, for 3 consecutive days, to find the hidden platform (acquisition phase). The escape latency, i.e., the time required by the rat to find and climb onto the platform, was recorded for up to 120 sec. Each rat was allowed to remain on the platform for 30 sec, after which it was removed to its home cage.
A video camera was placed above the center of the pool for tracking the rat, and a video tracking system (Noldus) with online digital output directly fed data into a computer. Data were analyzed using EthoVision automated tracking system software (Noldus).
Compound 1 at both doses decreased the latency to the platform on day 3 of the experiment but not on days 1 and 2.
The relief of cognitive impairments was also shown in the use of Compound 6. […] Compound 6 at 10 mg/kg decreased the latency to the platform on days 2 and 3 of the experimentation.

mice [2] = test: Open field exploratory locomotor activity; conditions: for sedative effect: mice, i.p.
Description: Open Field Exploratory Locomotor Activity
The procedure consists of subjecting an animal, usually a rodent, to an unknown large environment from which escape is prevented by surrounding walls. The open field test is now one of the most popular procedures in animal psychology (Crawley, et al., Exploratory behavior models of anxiety in mice, Neurosci Biobehav Rev 9 (1985), pp. 37-44). The procedure involves forced confrontation of a rodent with the situation. The animal is placed in the center or close to the walls of the apparatus and the following behavioral items are recorded for a period ranging from 5 to 20 minutes: horizontal locomotion, and frequency of rearing or leaning. In such a situation, rodents spontaneously prefer the periphery of the apparatus to activity in the central parts of the open field. Increase in time spent in the central part as well as of the ratio central/total locomotion or decrease of the latency to enter the central part are indications of anxiolysis.
In a typical test, an individual mouse was placed in a novel environment of a square open field (50×50 cm), the floor of which had been divided into 3 areas, as shown below. The area within 10 cm of the chamber walls was termed the periphery. […] One hour after drug administration, the animal was placed in the same corner of the field. The animal behavior in the open field was recorded by videotaping for 20-60 minutes and analyzed subsequently digitally using the Noldus software for animal behavior. The measurements included velocity, distance moved, frequency of visits to the central area, number of rearing events.
The effect of Compound 1 on the behavior of mice in the open field and the dose-dependent effect following i.p administration were evaluated. Naïve male Mice (Balb/c, Harlan Israel) were used. The animals, divided 3 to 5 animals per group, were administered with Compound 1 (12.5, 25, 50, 75 and 100 mg/kg) 1 hr prior to placing each in an open field. Mice were monitored for 1 hr (every 5 minutes) using the Noldus system, and their distance moved, velocity, time of immobility and number of rearings was recorded.
The effect of Compound 6 on the behavior of mice in the open field was also examined. Naïve male mice (Balb/c, Harlan Israel) were used. Animals (6 per group) were administered with Compound 6 (12.5, 25 and 50 mg/kg, i.p.) 1 hr prior to placing each in the open field. Mice were followed for 1 hr (every 5 minutes) using the Noldus system, and their distance moved, velocity, time of immobility and number of rearings was recorded.
The effect of oral administration of Compound 1 in the open field was tested by orally administering to male ICR mice varying amounts of Compound 1 (5, 10 and 20 mg/kg) or vehicle. Animals were placed in the open field 1 hr after drug administration and horizontal and vertical behavior was recorded for 20 minutes.
The dose-dependent effect of Compound 3 administered i.p. in the open field was also tested. Naïve male mice (Balb/c, Harlan Israel) were used. Animals were administered with Compound 3 (12.5, 25 and 50 mg/kg, i.p., 6 per group) 1 hr prior to placing each in the open field. Mice were followed for 1 hr (every 5 minutes) using the Noldus system, and their distance moved, velocity, time of immobility and number of rearings was recorded.
Animals were administered orally with Compound 1 (5, 10 and 20 mg/kg) or with a vehicle. Animals were placed in the open field 1 hr after drug administration and animal track was registered for 20 minutes. The time spent in the center (zone 3) and the frequency to the center were indicators of anxiety.

mice [3] = test: Elevated plus maze
Description: The elevated plus maze is a widely used method to test anxiety in rodents (Pellow, et al., Pharmacol. Biochem. Behav., 24, 525-529 (1986)). The apparatus was made of wood and painted black, with two opposing open arms and two opposite enclosed arms of the same size. The arms were attached to a central square shaped in a plus sign. The whole apparatus was placed 50 cm above the floor. Anxious animals refrain from entering the open arm and prefer the closed arm.
In a typical experiment, Balb/c male mice were administered orally with 10 and 20 mg/kg of Compound 1 or Compound 6 and with a vehicle or with diazepam (1 mg/kg) administered per os (p.o.) 90 minutes before they were placed in the center of the maze. The frequency to the open aims, the time spent in the different arms, the velocity and number of rearings of the animals in each zone were recorded (Noldus).
Male Balb/c mice were used. Animals were transferred to the behavior room 24 hr before the experiment. Compound 1 or diazepam were administered orally 90 minutes before testing. Each treatment group included 5 animals.
Male Balb/c mice were used. Animals were transferred to the behavior room 24 hr before the experiment. Compound 6 (3, 9, or 27 mg/kg) or vehicle were administered orally 90 minutes before testing. Each treatment group included 5 animals.

[4] = Balb/c mice, 12.5, 25 and 50 mg/kg i.p.
[5] = male ICR mice, oral 10 and 20 mg/kg, 1 hr after administration, 20 minutes
[6] = male Balb/c mice, 20 mg/kg oral
[7] = male Balb/c mice, oral, diazepam 1 mg/kg

In the case of `CNC(CN1CCN(C2=Nc3ccccc3Nc3sc(C)cc32)CC1)C(=O)OC` (stereo not shown) [Compound 6, 2-N-methylamino-3-[4-(2-methyl-10H-thieno[2,3-b][1.5]benzodiazepin-4-yl)-piperazin-1-yl]propionic acid, methyl ester trihydrochloride salt], the “latency to the platform” value ([1]; 10 mg/kg p.o. once on day 1, days 2 and 3) is reported as “decreased”, the “duration of “not moving” periods” value (mice [2]; [4]) is reported as “increased” and the “horizontal (distance) and vertical motility (number of rearings)” value (mice [2]; [4]) is reported as “inhibition”. For the same compound, the “motility (distance moved and velocity)” value (mice [2]; Balb/c mice, 12.5, 25 and 50 mg/kg i.p., 1 hr prior) was “dose dependent decrease”, the “effect on motility (distance moved and velocity)” value (mice [2]; Balb/c mice, up to 50 mg/kg i.p.) was “mild” and the sedative effect (mice [2]) was “mild sedative effect”. The “time spent in the closed arm” value (mice [3]; male Balb/c mice, 3, 9 and 27 mg/kg orally) was “did not significantly affect”, the “time spent in the open arms” value (mice [3]; male Balb/c mice, 3, 9 and 27 mg/kg orally, 90 minutes before testing, trihydrochloride salt) was “more time; also recorded: dose-dependently increase” and the “time spent in the center” value (mice [3]; male Balb/c mice, 3, 9 and 27 mg/kg orally, trihydrochloride salt) was “less and decrease”.
For `COC(=O)C(N)CN1CCN(C2=Nc3ccccc3Nc3sc(C)cc32)CC1` (stereo not shown) [Compound 1, 2-amino-3-[4-(2-methyl-10H-thieno[2,3-b][1,5]benzodiazepin-4-yl)-piperazin-1-yl]-propionic acid, methyl ester hydrochloride salt], the “latency to the platform” value ([1]; 10 and 20 mg/kg p.o. on day 1, day 3) was “decreased”, the “horizontal and vertical motility parameters” value (mice [2]; Balb/c mice, 12.5 mg/kg i.p.) was “did not modify significantly” and the rearing frequency (mice [2]; Balb/c mice, 12.5 mg/kg i.p.) was “tended to increase”. For the same compound, the “sedative effect / motility” value (mice [2]; Balb/c mice, doses higher than 50 mg/kg i.p.) was “marked sedative effect”, the “horizontal and vertical motility” value (mice [2]; Balb/c mice, doses up to 50 mg/kg i.p.) was “mild inhibition” and the “horizontal and vertical motility” value (mice [2]; Balb/c mice, i.p. 12.5, 25, 50, 75 and 100 mg/kg, 1 hr prior, monitored 1 hr) was “dose dependent decrease”. The “anxiety parameters (time spent in the center and frequency to the center)” value (mice [2]; male ICR mice, 20 mg/kg p.o., 1 hr before, 20 minutes) was “anxiolytic activity”, the “horizontal behavior (velocity and distance moved)” value (mice [2]; [5]) was “slightly decreased” and the “vertical behavior (number of rearings)” value (mice [2]; [5]) was “increased”. The sedative effect (mice [2]) was “mild sedative effect”, the “anxiolytic activity (overall conclusion)” value (mice [3]; 20 mg/kg) was “anxiolytic activity which resembles diazepam” and the “time spent in the center” value (mice [3]; [6]) was “increased”. For the same compound, the “time spent in the closed and the open arm” value (mice [3]; [6]) was “did not significantly affect”, the “frequency to the open arm and the center” value (mice [3]; male Balb/c mice, 20 mg/kg oral, 90 minutes before testing) was “frequented significantly more” and the “number of rearings in the open arm” value (mice [3]; [7]) was “increased number of rearings”. For the same compound, the velocity (mice [3]; [7]) was “not”.
